The subject of one series is Cooperia oncophora. Briefly: Method C: Cooperia oncophora L1 larvae in vitro. As to conditions: 96 h, read-out: inhibition of motility.
Series [1] is described as follows: Method G: permeability in the Caco-2/TC7 in vitro model. As to conditions: human, Caco-2, pH 6.5.
The test system of a further series is Haemonchus contortus. The experiment in a line: Method A: Haemonchus contortus L1 larvae, microtitre plate screen. To be noted: 96 h, read-out: motility inhibition.
Series [2] relates to microfilaria of Dirofilaria immitis. Briefly: Method F: microfilaria of Dirofilaria immitis, survival at 24 hours.
Where [3] appears, read: survival of microfilaria at 24 hours.

Like-named read-outs stand apart in the source and are kept apart here.

On to `O=C(CO[C@H]1CC[C@H](Nc2ccc([N+](=O)[O-])c(C(F)(F)F)c2)CC1)N1CCN(Cc2cc3c(F)c(F)ccc3o2)CC1` [Compound 320, 2-[(4-[[4-nitro-3-(trifluoromethyl)phenyl]amino]cyclohexyl)-oxy]1-[4-(4,5-difluorobenzofuran-2-ylmethyl)piperazin-1-yl]ethan-1-one], for which the inhibition at 5 µg/mL with Cooperia oncophora and with Haemonchus contortus was no less than 90% in each case. Moreover, the apparent permeability from apical to basolateral (Papp A→B) at 20 μM in series [1] stood at 6.8 ×10⁻⁶ cm/s.
`CC(c1cc2cc(F)ccc2o1)N1CCN(C(=O)CO[C@H]2CC[C@H](Nc3ccc([N+](=O)[O-])c(C(F)(F)F)c3)CC2)CC1` (some centres unmarked) [Compound 304, 2-[(4-[[4-nitro-3-(trifluoromethyl)phenyl]amino]cyclohexyl)-oxy]1-[4-[1-(5-fluorobenzofuran-2-yl)ethyl]piperazin-1-yl]ethan-1-one] had an EC50 in series [2] (setting [3]) of less than 5 µg/mL. Moreover, the inhibition at 5 µg/mL in the series on Cooperia oncophora and in the series with Haemonchus contortus was no less than 90% in each case. The molecule further had an apparent permeability from apical to basolateral (Papp A→B) at 20 μM in series [1] of 9 ×10⁻⁶ cm/s.
Molecule `O=C(CO[C@H]1CC[C@H](Nc2ccc([N+](=O)[O-])c(C(F)(F)F)c2)CC1)N1CCN(Cc2cc3cc(F)ccc3s2)CC1` [Compound 234, 1-[4-[(5-fluoro-1-benzothiophen-2-yl)methyl]piperazin-1-yl]-2-[[4-[[4-nitro-3-(trifluorometh-yl)phenyl]amino]cyclohexyl]oxy]ethan-1-one] returned an EC50 in series [2] (setting [3]) of less than 0.1 µg/mL. Moreover, the inhibition at 5 µg/mL with Cooperia oncophora and with Haemonchus contortus was no less than 90% throughout. Besides, in series [1], the apical-to-basolateral permeability (Papp A→B) at 20 μM was 4 ×10⁻⁶ cm/s.
For `O=C(CO[C@H]1CC[C@H](Nc2ccc([N+](=O)[O-])c(C(F)(F)F)c2)CC1)N1CCN(Cc2nc3cc(Cl)ccc3s2)CC1` [Compound 291, 1-[4-[(5-chloro-1,3-benzothiazol-2-yl)methyl]piperazin-1-yl]-2-[4-[4-nitro-3-(trifluoromethyl)anilino]cyclohexoxy]ethanone], the inhibition at 5 µg/mL in the series on Cooperia oncophora and in the series with Haemonchus contortus was no less than 90% in each case. The molecule also showed an apical-to-basolateral permeability (Papp A→B) at 20 μM in series [1] of 6.2 ×10⁻⁶ cm/s.
As to `O=C(CO[C@H]1CC[C@H](Nc2ccc([N+](=O)[O-])c(C(F)(F)F)c2)CC1)N1CCN(Cc2ccc3ccc(C(F)(F)F)cc3n2)CC1` [Compound 328, 2-[4-(4-nitro-3-trifluoromethyl-phenylamino)-cyclohexyloxy]-1-[4-(7-trifluoromethyl-quinolin-2-ylmethyl)-piperazin-1-yl]-ethanone], the inhibition at 5 µg/mL with Cooperia oncophora and in the series on Haemonchus contortus was no less than 90% in each case. The molecule further returned a Papp A→B at 20 μM in series [1] of 7.2 ×10⁻⁶ cm/s.
In series [2], `N#Cc1ccc(N[C@H]2CC[C@H](OCC(=O)N3CCN(Cc4nc5cc(Cl)ccc5s4)CC3)CC2)cc1C(F)(F)F` [Compound 292, 4-[[4-[2-[4-[(5-chloro-1,3-benzothiazol-2-yl)methyl]piperazin-1-yl]-2-oxo-ethoxy]cyclohexyl]amino]-2-(trifluoromethyl)benzonitrile] displayed a half-maximal effective concentration (EC50) of less than 1 µg/mL. The molecule further had a Papp A→B at 20 μM in series [1] of 8.3 ×10⁻⁶ cm/s. Besides, the inhibition at 5 µg/mL with Haemonchus contortus was no less than 90%.
Regarding `O=C(COc1ccc(Nc2ccc([N+](=O)[O-])c(C(F)(F)F)c2)cc1)N1CCN(CC2Cc3cc(C(F)(F)F)ccc3O2)CC1` (centres unmarked) [Compound 187, 2-(4-[[4-nitro-3-(trifluoromethyl)phenyl]amino]phenoxy)-1-(4-[[5-(trifluoromethyl)-2,3-dihydro-1-benzofuran-2-yl]methyl]piperazin-1-yl)ethan-1-one], the EC50 in series [2] (setting [3]) is less than 1 µg/mL. The same molecule displayed a Papp A→B at 20 μM in series [1] of 5.5 ×10⁻⁶ cm/s. Further, the inhibition at 5 µg/mL with Haemonchus contortus was no less than 90%.
The matching figures for `O=C(CO[C@H]1CC[C@H](Nc2ccc([N+](=O)[O-])c(C(F)(F)F)c2)CC1)N1CCN(Cc2nc3cc(Cl)ccc3o2)CC1` [Compound 287, 2-[(4-[[4-nitro-3-(trifluoromethyl)phenyl]amino]cyclohexyl)-oxy]1-[4-(5-chlorobenzoxazol-2-ylmethyl)piperazin-1-yl]ethan-1-one]: less than 5 µg/mL, 11 ×10⁻⁶ cm/s and no less than 90%.

For the origin of these results see patent US9249102B2 (priority 2012, dated 2016).
